This is an account of results in ChEMBL document CHEMBL5154901, “Development of Predictive Classification Models for Whole Cell Antimycobacterial Activity of Benzothiazinones” (J Med Chem, 2022).

≈ marks a conversion by molar mass, not a printed value. Some results are limits rather than exact numbers.

One data set concerns Mycolicibacterium vaccae. The data set can be described thus: Antimycobacterial activity against Mycobacterium vaccae (JMRC:STI:10670) assessed as reduction in bacterial growth incubated for 42 hrs by serial dilution method. It counts as functional.
The nature of data set [1]: Cytotoxicity against human HeLa cells assessed as reduction in cell viability incubated for 72 hrs by methylene blue staining based colorimetric assay. Type of data set: toxicity.
[2] abbreviates: Mycolicibacterium vaccae, JMRC:STI:10670, read-out: MIC.

As usually defined, the MIC is the lowest concentration that inhibits growth of the organism. The term CC50 denotes the concentration at which the toxic effect on the cells reaches its halfway point. For the compound `COc1ccc2c(c1)CN(c1nc(=O)c3cc(C(F)(F)F)cc([N+](=O)[O-])c3s1)C2`, in the data set on Mycolicibacterium vaccae (setting [2]), the MIC was 0.0591 µM (≈ 0.025 µg/mL). Further, the 50% cytotoxic concentration (CC50) at 72 h in data set [1] was above 118 µM.

With `O=C(CN1CCN(c2nc(=O)c3cc(C(F)(F)F)cc([N+](=O)[O-])c3s2)CC1)Nc1ccccc1`, the MIC in the data set with Mycolicibacterium vaccae (setting [2]) turned out to be 0.0253 µM (≈ 0.0125 µg/mL). In data set [1], the CC50 at 72 h was above 101 µM.

For `O=C(c1cccc2[nH]ncc12)N1CCN(c2nc(=O)c3cc(C(F)(F)F)cc([N+](=O)[O-])c3s2)CC1`, in the data set on Mycolicibacterium vaccae (setting [2]), the MIC came out at 1.55 µM (≈ 0.782 µg/mL).

On to `O=c1nc(N2CCC(c3ccc(CO)cc3)CC2)sc2c([N+](=O)[O-])cc(C(F)(F)F)cc12`, for which the MIC in the data set on Mycolicibacterium vaccae (setting [2]) turned out to be 0.0537 µM (≈ 0.025 µg/mL). For the same compound, the CC50 at 72 h in data set [1] came to 19.6 µM.

Turning to `O=c1nc(N2CCn3nnc(-c4ccccc4)c3C2)sc2c([N+](=O)[O-])cc(C(F)(F)F)cc12`, the MIC in the data set on Mycolicibacterium vaccae (setting [2]) stood at 1.64 µM (≈ 0.778 µg/mL).

On to `CN1CCN(C(=O)C(F)(F)C(F)(F)C(=O)N2CCN(c3nc(=O)c4cc(C(F)(F)F)cc([N+](=O)[O-])c4s3)CC2)CC1`, for which the MIC in the data set with Mycolicibacterium vaccae (setting [2]) turned out to be 0.0407 µM (≈ 0.025 µg/mL). Besides, the CC50 at 72 h in data set [1] is above 81.4 µM.

Consider `Cn1c(-c2ccccc2)nc2c1CN(c1nc(=O)c3cc(C(F)(F)F)cc([N+](=O)[O-])c3s1)C2`, for which the MIC with Mycolicibacterium vaccae was 13 10^3nM.

In the case of `CCn1c(-c2ccccc2)nc2c1CN(c1nc(=O)c3cc(C(F)(F)F)cc([N+](=O)[O-])c3s1)C2`, the minimal inhibitory concentration (MIC) in the data set on Mycolicibacterium vaccae (setting [2]) amounted to 3.2 µM (≈ 1.56 µg/mL).

`O=c1nc(N2CCN(CC(F)(F)c3ccc(F)cc3)CC2)sc2c([N+](=O)[O-])cc(C(F)(F)F)cc12`: the MIC in the data set on Mycolicibacterium vaccae (setting [2]) is 0.0154 µM (≈ 0.00798 µg/mL). Besides, the CC50 at 72 h in data set [1] came to 87.2 µM.

With `CN1CCN(C(=O)CC(C)(C)CC(=O)N2CCN(c3nc(=O)c4cc(C(F)(F)F)cc([N+](=O)[O-])c4s3)CC2)CC1`, in the data set on Mycolicibacterium vaccae (setting [2]), the MIC was 5.34 µM (≈ 3.12 µg/mL).

Turning to `CN(c1ccc2[nH]ncc2c1)c1nc(=O)c2cc(C(F)(F)F)cc([N+](=O)[O-])c2s1`, the MIC in the data set with Mycolicibacterium vaccae (setting [2]) worked out at 0.949 µM (≈ 0.4 µg/mL).

On to `O=C(CN1CCN(c2nc(=O)c3cc(C(F)(F)F)cc([N+](=O)[O-])c3s2)CC1)NCCc1ccccc1`, for which the MIC with Mycolicibacterium vaccae (setting [2]) is 0.479 µM (≈ 0.25 µg/mL). Besides, the CC50 at 72 h in data set [1] was determined as 87.8 µM.

On to `O=c1nc(N2CC[C@](O)(c3ccccc3)[C@@H](O)C2)sc2c([N+](=O)[O-])cc(C(F)(F)F)cc12`, for which the MIC in the data set on Mycolicibacterium vaccae (setting [2]) came to 0.0267 µM (≈ 0.0125 µg/mL). For the same compound, the CC50 at 72 h in data set [1] amounted to 73 µM.

For `CN1CCN(C(=O)CCC(=O)N2CCN(c3nc(=O)c4cc(C(F)(F)F)cc([N+](=O)[O-])c4s3)CC2)CC1`, the MIC in the data set on Mycolicibacterium vaccae was 5.8 10^3nM.

As to `O=c1nc(N2CC[C@](O)(COc3ccc(F)cc3)[C@@H](O)C2)sc2c([N+](=O)[O-])cc(C(F)(F)F)cc12`, the MIC in the data set with Mycolicibacterium vaccae (setting [2]) was 0.0243 µM (≈ 0.0125 µg/mL). Also, the CC50 at 72 h in data set [1] is 34.3 µM.

Turning to `O=c1nc(N2CCn3c(-c4ccccc4)cnc3C2)sc2c([N+](=O)[O-])cc(C(F)(F)F)cc12`, the MIC in the data set with Mycolicibacterium vaccae (setting [2]) stood at 0.0131 µM (≈ 0.0062 µg/mL).

Consider `CN1CCC(OC2CCN(c3nc(=O)c4cc(C(F)(F)F)cc([N+](=O)[O-])c4s3)CC2)CC1`, for which the MIC in the data set on Mycolicibacterium vaccae is recorded as 6.6 10^3nM.

In the case of `O=c1nc(N2CCNCC2)sc2c([N+](=O)[O-])cc(C(F)(F)F)cc12`, the MIC in the data set with Mycolicibacterium vaccae (setting [2]) is 17.3 µM (≈ 6.23 µg/mL).

Take `O=C(c1ccc2cn[nH]c2c1)N1CCN(c2nc(=O)c3cc(C(F)(F)F)cc([N+](=O)[O-])c3s2)CC1`: in the data set on Mycolicibacterium vaccae (setting [2]), the MIC was 3.09 µM (≈ 1.56 µg/mL).

In the case of `O=c1nc(N2CCC(O)CC2)sc2c([N+](=O)[O-])cc(C(F)(F)F)cc12`, the MIC in the data set with Mycolicibacterium vaccae is listed as 1.1 10^3nM.

`CN(c1ccc(O)cc1)c1nc(=O)c2cc(C(F)(F)F)cc([N+](=O)[O-])c2s1`: the MIC with Mycolicibacterium vaccae (setting [2]) was 126 µM (≈ 50.1 µg/mL).

With `CN1CCC(CCC2CCN(c3nc(=O)c4cc(C(F)(F)F)cc([N+](=O)[O-])c4s3)CC2)CC1`, the MIC in the data set on Mycolicibacterium vaccae (setting [2]) stood at 0.206 µM (≈ 0.0998 µg/mL).

Take `O=c1nc(Nc2ccc3[nH]ncc3c2)sc2c([N+](=O)[O-])cc(C(F)(F)F)cc12`: the minimal inhibitory concentration (MIC) in the data set on Mycolicibacterium vaccae (setting [2]) was 61.4 µM (≈ 25 µg/mL).

Consider `CC(C)n1c2c([n+](C)c1-c1ccccc1)CN(c1nc(=O)c3cc(C(F)(F)F)cc([N+](=O)[O-])c3s1)C2`, for which the MIC in the data set with Mycolicibacterium vaccae (setting [2]) worked out at 0.0477 µM.

For the compound `O=c1nc(N2CCn3nc(-c4ccccc4)nc3C2)sc2c([N+](=O)[O-])cc(C(F)(F)F)cc12`, the MIC with Mycolicibacterium vaccae (setting [2]) was found to be 105 µM (≈ 49.8 µg/mL).

Turning to `O=C(c1ccc2[nH]ncc2c1)N1CCN(c2nc(=O)c3cc(C(F)(F)F)cc([N+](=O)[O-])c3s2)CC1`, the MIC in the data set on Mycolicibacterium vaccae (setting [2]) was 6.19 µM (≈ 3.12 µg/mL).

For the compound `O=c1nc(N2CCn3nncc3C2)sc2c([N+](=O)[O-])cc(C(F)(F)F)cc12`, the MIC in the data set with Mycolicibacterium vaccae (setting [2]) is 31.4 µM (≈ 12.5 µg/mL).

Turning to `O=c1nc(N2CCN(CCCC3(c4ccc(F)cc4)OCCO3)CC2)sc2c([N+](=O)[O-])cc(C(F)(F)F)cc12`, the minimal inhibitory concentration (MIC) with Mycolicibacterium vaccae (setting [2]) was 0.141 µM (≈ 0.0802 µg/mL).

With `O=c1nc(Nc2ccccc2)sc2c([N+](=O)[O-])cc(C(F)(F)F)cc12`, the MIC in the data set on Mycolicibacterium vaccae (setting [2]) turned out to be 68.1 µM (≈ 25 µg/mL).

As to `Cn1c(-c2ccccc2)nc2c1CCN(c1nc(=O)c3cc(C(F)(F)F)cc([N+](=O)[O-])c3s1)C2`, the MIC with Mycolicibacterium vaccae (setting [2]) came out at 0.41 µM (≈ 0.2 µg/mL).

As to `O=c1nc(N2CCn3cc(-c4ccc(OC(F)(F)F)cc4)nc3C2)sc2c([N+](=O)[O-])cc(C(F)(F)F)cc12`, in the data set on Mycolicibacterium vaccae (setting [2]), the MIC is 1.4 µM (≈ 0.78 µg/mL).

Regarding `O=c1nc(N2CCn3cc(-c4ccccc4)nc3C2)sc2c([N+](=O)[O-])cc(C(F)(F)F)cc12`, the MIC in the data set with Mycolicibacterium vaccae is on record as 53 10^3nM.

As for `O=c1nc(N2CCN(c3ccc(O)cc3)CC2)sc2c([N+](=O)[O-])cc(C(F)(F)F)cc12`, in the data set with Mycolicibacterium vaccae (setting [2]), the MIC was found to be 1.72 µM (≈ 0.778 µg/mL).
